Laboratory results as given in ChEMBL document CHEMBL1140268, “Novel and potent cyclic cyanamide-based cathepsin K inhibitors” (Bioorg Med Chem Lett, 2005).

Experiments:
Pro-cathepsin H = target: T1, Pro-cathepsin H (Homo sapiens, UniProt P09668); assay: Inhibitory concentration against human cathepsin H using 50 uM L-Arg-beta-naphthalamide
T1 sequence (P09668 whole entry): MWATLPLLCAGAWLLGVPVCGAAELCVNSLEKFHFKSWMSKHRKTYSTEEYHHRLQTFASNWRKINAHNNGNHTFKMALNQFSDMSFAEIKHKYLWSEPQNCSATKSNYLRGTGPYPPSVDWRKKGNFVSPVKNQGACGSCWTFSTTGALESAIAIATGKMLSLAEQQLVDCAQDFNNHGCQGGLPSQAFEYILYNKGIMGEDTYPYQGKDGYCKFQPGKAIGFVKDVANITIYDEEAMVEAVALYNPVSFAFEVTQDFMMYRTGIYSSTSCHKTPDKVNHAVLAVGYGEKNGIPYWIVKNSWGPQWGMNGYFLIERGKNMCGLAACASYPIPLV

Cathepsin B = Cathepsin B (Homo sapiens, UniProt P07858); assay: Inhibitory concentration against human cathepsin B using 10 uM Cbz-Phe-Arg-AMC
Cathepsin K = target: T2, Cathepsin K (Homo sapiens, UniProt P43235); assay: Inhibitory concentration against human cathepsin K using 10 uM Cbz-Phe-Arg-AMC
T2 sequence (P43235 whole entry): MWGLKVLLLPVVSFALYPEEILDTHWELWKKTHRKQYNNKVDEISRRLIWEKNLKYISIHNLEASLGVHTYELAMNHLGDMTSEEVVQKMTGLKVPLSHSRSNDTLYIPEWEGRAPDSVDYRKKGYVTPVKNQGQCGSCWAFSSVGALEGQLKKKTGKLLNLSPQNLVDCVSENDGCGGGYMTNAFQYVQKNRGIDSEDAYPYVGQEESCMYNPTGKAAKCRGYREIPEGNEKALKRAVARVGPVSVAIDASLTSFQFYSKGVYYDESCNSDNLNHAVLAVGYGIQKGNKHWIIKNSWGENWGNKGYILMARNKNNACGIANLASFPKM

Procathepsin L = Procathepsin L (Homo sapiens, UniProt P07711); assay: Inhibitory concentration against human cathepsin L using 5 uM Cbz-Phe-Arg-AMC
Chain of Procathepsin L (P07711 whole entry): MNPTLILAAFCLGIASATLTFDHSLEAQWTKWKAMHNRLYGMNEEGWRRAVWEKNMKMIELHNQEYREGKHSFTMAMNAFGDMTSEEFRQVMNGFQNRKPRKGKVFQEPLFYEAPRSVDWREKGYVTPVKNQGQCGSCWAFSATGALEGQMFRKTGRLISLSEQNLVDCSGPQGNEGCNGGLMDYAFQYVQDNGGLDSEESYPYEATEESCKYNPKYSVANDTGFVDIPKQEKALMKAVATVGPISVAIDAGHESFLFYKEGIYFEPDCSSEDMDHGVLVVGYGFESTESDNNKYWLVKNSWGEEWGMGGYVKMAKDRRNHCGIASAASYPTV

In the case of `C[C@@H](CC1CCCCC1)OC(=O)N[C@H]1CCN(C#N)C1`, the IC50 (Pro-cathepsin H) is reported as 8300 nM, the IC50 (Cathepsin B) is reported as 680 nM and the IC50 (Cathepsin K) is reported as 12 nM. For the same molecule, the IC50 (Procathepsin L) was 81 nM.
With `CCCC[C@H](C=O)NC(=O)OC(C)(C)C` the IC50 (Cathepsin K) was 51 nM.
With `CN(C(=O)[C@H]1CCCN1C#N)C(C)(C)C` the IC50 (Cathepsin K) was over 13000 nM.
For `CC(C)(C)NC(=O)[C@H]1CCCN1C#N`, the IC50 (Cathepsin K) was 8100 nM.
With `CC[C@@H](CC1CCCCC1)OC(=O)NC1CCN(C#N)C1` (stereo not given in full) the IC50 (Cathepsin K) was 8.9 nM.
For `CC[C@@H](CC1CCCCC1)OC(=O)N1CCC(NC#N)C1` (stereo not given in full), the IC50 (Cathepsin K) was 200 nM.
`N#CN1CCCC1` [CYANO-PYRROLIDINE] was tested, and the IC50 (Cathepsin K) was 2100 nM.
In the case of `CC(C)(C)OC(=O)[C@@H]1CCCN1C#N`, the IC50 (Cathepsin K) is reported as 60 nM.
`C[C@@H](CC1CCCCC1)OC(=O)C1CCCN1C#N` (stereo not given in full) was tested, and the IC50 (Pro-cathepsin H) was 580 nM, the IC50 (Cathepsin B) was 310 nM and the IC50 (Cathepsin K) was 1.8 nM. The IC50 (Procathepsin L) was 130 nM.
In the case of `CC(C)(C)OC(=O)[C@@H]1CCCCN1C#N`, the IC50 (Cathepsin K) is reported as over 13000 nM.
`CC(C)(C)OC(=O)N1CCCN1C#N` was tested, and the IC50 (Cathepsin K) was 380 nM.
In the case of `CC(C)(C)OC(=O)[C@H]1CCCN1C#N`, the IC50 (Cathepsin K) is reported as 300 nM.
`CC(C)(C)OC(=O)N[C@H]1CCN(C#N)C1` was tested, and the IC50 (Cathepsin K) was 81 nM.
Work on `C[C@@H](CC1CCCCC1)OC(=O)C1CCN1C#N` (stereo not given in full) yielded an IC50 (Pro-cathepsin H) of 40 nM, an IC50 (Cathepsin B) of 2.4 nM and an IC50 (Cathepsin K) of 0.048 nM. The IC50 (Procathepsin L) was 0.71 nM.
`CC(C)(C)OC(=O)N[C@@H]1CCN(C#N)C1` showed an IC50 (Cathepsin K) of 200 nM.
In the case of `COC(=O)[C@@H]1CN(C#N)C[C@H]1c1ccc(OC)c(OC2CCCC2)c1`, the IC50 (Cathepsin K) is reported as 430 nM.
